Reference: the NIST ThermoML archive (doi:10.1021/je101361u)
± gives the expanded uncertainty stated by the source.

Assay: xn = mol fraction of the nth substance listed
Conditions: 101.3 kPa, Liquid, Vibrating tube method

COCCOCCOC [2,5,8-trioxanonane] + ClCCCl
mass density [kg/m3]
Conditions | 283.15 K | 288.15 K | 293.15 K | 298.15 K | 303.15 K | 308.15 K
x2 = 0 | – | 948.72 ± 0.23 | – | – | – | –
x2 = 0.0252 | 958.22 ± 0.25 | 953.25 ± 0.25 | 948.26 ± 0.25 | 943.26 ± 0.25 | 938.26 ± 0.25 | 933.23 ± 0.25
x2 = 0.0508 | 963.01 ± 0.24 | 958.01 ± 0.24 | 952.99 ± 0.24 | 947.97 ± 0.24 | 942.93 ± 0.24 | 937.88 ± 0.24
x2 = 0.0751 | 967.64 ± 0.24 | 962.62 ± 0.24 | 957.57 ± 0.24 | 952.52 ± 0.24 | 947.45 ± 0.24 | 942.36 ± 0.24
x2 = 0.1 | 972.47 ± 0.23 | 967.4 ± 0.23 | 962.33 ± 0.23 | 957.24 ± 0.23 | 952.14 ± 0.23 | 947.02 ± 0.23
x2 = 0.1502 | 982.62 ± 0.22 | 977.49 ± 0.22 | 972.35 ± 0.22 | 967.19 ± 0.22 | 962.02 ± 0.22 | 956.85 ± 0.22
x2 = 0.1999 | 993.12 ± 0.22 | 987.92 ± 0.22 | 982.7 ± 0.22 | 977.48 ± 0.22 | 972.24 ± 0.22 | 966.98 ± 0.22
x2 = 0.25 | 1004.25 ± 0.21 | 998.97 ± 0.21 | 993.69 ± 0.21 | 988.39 ± 0.21 | 983.08 ± 0.21 | 977.75 ± 0.21
x2 = 0.3002 | 1015.91 ± 0.21 | 1010.56 ± 0.21 | 1005.2 ± 0.21 | 999.83 ± 0.2 | 994.44 ± 0.2 | 989.03 ± 0.2
x2 = 0.3501 | 1028.01 ± 0.21 | 1022.59 ± 0.21 | 1017.14 ± 0.21 | 1011.69 ± 0.2 | 1006.21 ± 0.2 | 1000.72 ± 0.2
x2 = 0.4 | 1040.79 ± 0.22 | 1035.28 ± 0.21 | 1029.75 ± 0.21 | 1024.2 ± 0.21 | 1018.64 ± 0.2 | –
x2 = 0.45 | 1054.2 ± 0.22 | 1048.58 ± 0.22 | 1042.96 ± 0.21 | 1037.32 ± 0.21 | 1031.66 ± 0.21 | –
x2 = 0.5003 | 1068.49 ± 0.22 | 1062.78 ± 0.22 | 1057.05 ± 0.22 | 1051.31 ± 0.22 | 1045.56 ± 0.21 | –
x2 = 0.5499 | 1083.31 ± 0.23 | 1077.45 ± 0.23 | 1071.62 ± 0.22 | 1065.77 ± 0.22 | 1059.91 ± 0.22 | –
x2 = 0.5999 | 1098.98 ± 0.24 | 1093.07 ± 0.23 | 1087.13 ± 0.23 | 1081.17 ± 0.23 | 1075.19 ± 0.23 | –
x2 = 0.6501 | 1115.77 ± 0.25 | 1109.73 ± 0.24 | 1103.67 ± 0.24 | 1097.58 ± 0.24 | 1091.48 ± 0.24 | –
x2 = 0.7 | 1133.3 ± 0.26 | 1127.26 ± 0.25 | 1121.07 ± 0.25 | 1114.85 ± 0.25 | 1108.62 ± 0.24 | –
x2 = 0.75 | 1151.98 ± 0.27 | 1145.68 ± 0.27 | 1139.34 ± 0.26 | 1132.98 ± 0.26 | 1126.61 ± 0.26 | –
x2 = 0.8 | 1172.08 ± 0.28 | 1165.61 ± 0.28 | 1159.12 ± 0.28 | 1152.61 ± 0.27 | 1146.07 ± 0.27 | –
x2 = 0.8499 | 1193.31 ± 0.3 | 1186.69 ± 0.3 | 1180.04 ± 0.29 | 1173.37 ± 0.29 | 1166.67 ± 0.29 | –
x2 = 0.9 | 1216.25 ± 0.31 | 1209.44 ± 0.31 | 1202.6 ± 0.31 | 1195.74 ± 0.3 | 1188.86 ± 0.3 | –
x2 = 0.925 | 1228.27 ± 0.33 | 1221.36 ± 0.33 | 1214.42 ± 0.32 | 1207.47 ± 0.32 | 1200.48 ± 0.32 | –
x2 = 0.9494 | 1240.66 ± 0.34 | 1233.66 ± 0.34 | 1226.62 ± 0.33 | 1219.57 ± 0.33 | 1212.48 ± 0.33 | –
x2 = 0.975 | 1253.89 ± 0.34 | 1246.79 ± 0.34 | 1239.64 ± 0.34 | 1232.47 ± 0.33 | 1225.28 ± 0.33 | –
